Measured values: ChEMBL document CHEMBL6074682, “Expanding the therapeutic window of gramicidin S towards a safe and effective systemic treatment of methicillin-resistant S. aureus infections” (Eur J Med Chem, 2025)
≈ marks a conversion by molar mass, not a printed value. Peptide text beside a SMILES is read from it.

Experiments:
[1] = Hemolytic activity in human RBC assessed as hemolysis incubated for 1 hr by absorbance based assay; format: toxicity, cell-based, Erythrocyte; details: human red blood cells
[2] = Therapeutic index, ratio of HC50 for human RBC to MIC for antibacterial activity against methicillin-sensitive Staphylococcus aureus ATCC 29213 clinical isolate; format: toxicity, cell-based; details: pooled result: one value given for 2 cell lines, strains, targets or settings, read-out: TI
[3] = Nephrotoxicity against HEK293 cells assessed as cell viability incubated for 24 hrs by MTT assay; format: toxicity, cell-based; details: human
[4] = system: Staphylococcus aureus; assay: Antibacterial activity against methicillin-sensitive Staphylococcus aureus ATCC 29213 clinical isolate assessed as bacterial growth inhibition at 256 to 0.125 ug/ml in CAMH broth medium incubated for 16 to 20 hrs by broth microdilution method; format: functional; details: dose 256-0.125 µg/ml, time 16-20 hrs
[5] = system: Staphylococcus aureus; assay: Antibacterial activity against methicillin-resistant Staphylococcus aureus ATCC USA 300 clinical isolate assessed as bacterial growth inhibition at 256 to 0.125 ug/ml in CAMH broth medium incubated for 16 to 20 hrs by broth microdilution method; format: functional; details: dose 256-0.125 µg/ml, time 16-20 hrs
[6] = Hemolytic activity in sheep RBC; format: toxicity, cell-based, Ovis aries, Erythrocyte; details: sheep red blood cells
[7] = Retention time of the compound by RP-HPLC analysis; format: physicochemical

With `CC(C)C[C@@H]1NC(=O)[C@H](CCCN)NC(=O)[C@H](C(C)C)NC(=O)[C@@H]2CCCN2C(=O)[C@@H](Cc2ccccc2)NC(=O)[C@H](CC(C)C)NC(=O)[C@H](CCCN)NC(=O)[C@H](C(C)C)NC(=O)[C@@H]2CCCN2C(=O)[C@@H](CCCNC(=N)N)NC1=O` (HELM PEPTIDE1{L.[dF].P.V.[Orn].L.[dR].P.V.[Orn]}$PEPTIDE1,PEPTIDE1,1:R1-10:R2$$$V2.0) the HC50 at 1 h [1] was 39.2 µg/mL, the selectivity ratio [2] was 4.9 and the IC50 at 24 h [3] was 18.7 µg/mL (≈ 16.2 µM). For the same molecule, the MIC [4] was 8 µg/mL (≈ 6.95 µM), the MIC [5] was 8 µg/mL (≈ 6.95 µM) and the HC50 [6] was over 115 µg/mL. It also gave a Retention_time [7] of 16.22 min.
